# Laboratory results: US11498920B2, “4-(1H-imidazol-5-yl)-1H-pyrrolo[2, 3-b] pyridines for use in the treatment of leukaemias, lymphomas and solid tumors” (MASARYKOVA UNIVERZITA, priority 2018, dated 2022)
# Legend:
# [1] = system: primary CLL cells; experiment: Cytotoxicity, TMRE flow cytometry viability, primary CLL cells (Example II.1); assay type: cell-based; details: Homo sapiens, CLL cell, 6 hours, TMRE positive cells normalized to control, ratio to PF670462, <1 = higher cytotoxicity than PF670462, read-out: Viability of cells, Compound of formula I (100 μM), relative to PF670462 (100 μM), CLL primary cells
# Description: (§1) The leukemia and lymphoma-derived cell lines [MEC-1 cell line (derived from chronic lymphocytic leukemia—CLL), Nalm-16 (acute lymphocytic leukemia—ALL), K562 (chronic myeloid leukemia—CML), HL-60 (acute myeloid leukemia—AML), Maver-1 and Mino (mantle cell lymphoma—MCL), BL-41 (Burkitt lymphoma—BL), WSU-NHL (follicular lymphoma—FL), SUDHL (diffuse large B-cell lymphoma—DLBCL)], primary CLL cells and nonmalignant control primary cells were cultured in suspension in flasks under the following conditions: RPMI 1640 medium (Hyclone) supplemented with 10% fetal bovine serum (FBS, Gibco) and 1% penicillin/streptomycin (Life Technologies), 37° C., 5% CO2 and 95% relative humidity, with optimal culture cell density 5×10^6 cells/mL in case of primary cells and 0.5-1×10^6 cells/mL in case of cell lines. The adherent cell lines [A375 (derived from malignant melanoma), MDA-MB-231 and MCF-7 (breast cancer), MIA-PA-CA and PANC1 (pancreatic cancer), PC3 (prostate cancer), OVCAR4 (ovarian cancer) and HEPG2 (hepatocellular carcinoma)] were cultured on plates under the same conditions using RPMI1640 or DMEM medium (Gibco) according to instructions provided by the distributor (DSMZ/ATCC).
# (§2) Cytotoxicity of compounds of formula I was tested in two models representative for leukemia (primary CLL cells) and lymphoma (Maver-1 cells). The primary CLL cells and Maver-1 cells (MCL-derived) were incubated with inhibitors at 100 μM concentration or corresponding amount of solvent (DMSO, Sigma Aldrich) as 0.1×10^6 cells/200 μl per well in a 96-well plate. Experiments were performed in technical duplicates. Viability of cells was assessed after 6 hours in case of primary CLL cells and after 24 hours in case of Maver-1 cells.
# (§3) Apoptosis-induced reduction of mitochondrial potential is detected as lower TMRE fluorescence. […] Relative values are presented, showing ratio to the effect of PF670462 (as the closest prior art). Relative value <1 indicates a higher cytotoxicity than PF670462.
# [2] = system: Maver-1 cells (mantle cell lymphoma); experiment: Cytotoxicity, TMRE flow cytometry viability, Maver-1 cells (Example II.1); assay type: cell-based; details: Homo sapiens, Maver1, 24 hours, TMRE positive cells normalized to control, ratio to PF670462, <1 = higher cytotoxicity than PF670462, read-out: Viability of cells, Compound of formula I (100 μM), relative to PF670462 (100 μM), Maver-1 cells (mantle cell lymphoma)
# Description: as §1, §2, §3
smiles,measurement,setting,value
"CN(C)Cc1nc(-c2ccc(F)cc2)c(-c2ccnc3[nH]ccc23)n1C1CCCCC1 [Preparative Example 169, 1-(1-cyclohexyl-4-(4-fluorophenyl)-5-(1H-pyrrolo[2,3-b]pyridin-4-yl)-1H-imidazol-2-yl)-N,N-dimethylmethanamine]",viability at 100 µM,[1],12%
same,viability at 100 µM,[2],0%
"Fc1ccc(-c2ncn(Cc3cc[nH]n3)c2-c2ccnc3[nH]ccc23)cc1 [Preparative Example 109, 4-(1-((1H-pyrazol-3-yl)methyl)-4-(4-fluorophenyl)-1H-imidazol-5-yl)-1H-pyrrolo[2,3-b]pyridine]",viability at 100 µM,[1],87%
same,viability at 100 µM,[2],31%
"Fc1ccc(-c2ncn(Cc3ccccc3)c2-c2ccnc3[nH]ccc23)cc1F [Preparative Example 179, 4-(1-benzyl-4-(3,4-difluorophenyl)-1H-imidazol-5-yl)-1H-pyrrolo[2,3-b]pyridine]",viability at 100 µM,[1],1%
same,viability at 100 µM,[2],0%
"Brc1ccc(-c2ncn(C3CCCCC3)c2-c2ccnc3[nH]ccc23)cc1 [Preparative Example 10, 4-(4-(4-bromophenyl)-1-cyclohexyl-1H-imidazol-5-yl)-1H-pyrrolo[2,3-b]pyridine]",viability at 100 µM,[1],61%
same,viability at 100 µM,[2],46%
"CC(=O)N[C@H]1CC[C@@H](n2cnc(-c3ccc(F)cc3)c2-c2ccnc3[nH]ccc23)CC1 [Preparative Example 75, N-(cis-4-(4-(4-fluorophenyl)-5-(1H-pyrrolo[2,3-b]pyridin-4-yl)-1H-imidazol-1-yl)cyclohexyl)acetamide]",viability at 100 µM,[1],83%
same,viability at 100 µM,[2],66%
CS(=O)(=O)N1CCC(n2cnc(-c3ccc(F)cc3)c2-c2ccnc3[nH]ccc23)CC1 [Preparative Example 69],viability at 100 µM,[1],84%
same,viability at 100 µM,[2],85%
"OCc1nc(-c2ccc(F)cc2)c(-c2ccnc3[nH]ccc23)n1C1CCCCC1 [Preparative Example 166, (1-cyclohexyl-4-(4-fluorophenyl)-5-(1H-pyrrolo[2,3-b]pyridin-4-yl)-1H-imidazol-2-yl)methanol]",viability at 100 µM,[1],7%
same,viability at 100 µM,[2],4%
"COC(=O)[C@H]1CC[C@@H](n2cnc(-c3ccc(F)cc3)c2-c2ccnc3[nH]ccc23)CC1 [Preparative Example 33, Methyl cis-4-(4-(4-fluorophenyl)-5-(1H-pyrrolo[2,3-b]pyridin-4-yl)-1H-imidazol-1-yl)cyclohexane-1-carboxylate]",viability at 100 µM,[1],63%
same,viability at 100 µM,[2],12%
"Fc1ccc(-c2ncn(Cc3ccccc3)c2-c2ccnc3[nH]ccc23)cc1 [Preparative Example 22, 4-(1-benzyl-4-(4-fluorophenyl)-1H-imidazol-5-yl)-1H-pyrrolo[2,3-b]pyridine]",viability at 100 µM,[1],17%
same,viability at 100 µM,[2],27%
CN(C)[C@H]1C[C@@H](Cn2cnc(-c3ccc(F)cc3)c2-c2ccnc3[nH]ccc23)C1 [Preparative Example 89],viability at 100 µM,[1],59%
same,viability at 100 µM,[2],70%
"Nc1cc(-c2c(-c3ccc(F)cc3)ncn2C2CCCCC2)c2cc[nH]c2n1 [Preparative Example 170, 4-(1-cyclohexyl-4-(4-fluorophenyl)-1H-imidazol-5-yl)-1H-pyrrolo[2,3-b]pyridin-6-amine]",viability at 100 µM,[1],56%
same,viability at 100 µM,[2],6%
"Cc1nc(Cn2cnc(-c3ccc(F)cc3)c2-c2ccnc3[nH]ccc23)cs1 [Preparative Example 108, 4-((4-(4-fluorophenyl)-5-(1H-pyrrolo[2,3-b]pyridin-4-yl)-1H-imidazol-1-yl)methyl)-2-methylthiazole]",viability at 100 µM,[1],74%
same,viability at 100 µM,[2],82%
"Fc1ccc(-c2ncn(CC3CNCCO3)c2-c2ccnc3[nH]ccc23)cc1 (stereo not drawn) [Preparative Example 114, 2-((4-(4-fluorophenyl)-5-(1H-pyrrolo[2,3-b]pyridin-4-yl)-1H-imidazol-1-yl)methyl)morpholine]",viability at 100 µM,[1],78%
same,viability at 100 µM,[2],27%
"Fc1ccc(-c2ncn(C3CCCCC3)c2-c2ccnc3[nH]cc(Br)c23)cc1 [Preparative Example 134, 3-bromo-4-(1-cyclohexyl-4-(4-fluorophenyl)-1H-imidazol-5-yl)-1H-pyrrolo[2,3-b]pyridine]",viability at 100 µM,[1],22%
same,viability at 100 µM,[2],1%
"Brc1cccc(-c2ncn(C3CCCCC3)c2-c2ccnc3[nH]ccc23)c1 [Preparative Example 6, 4-(4-(3-bromophenyl)-1-cyclohexyl-1H-imidazol-5-yl)-1H-pyrrolo[2,3-b]pyridine]",viability at 100 µM,[1],37%
same,viability at 100 µM,[2],42%
"Fc1ccc(-c2ncn(C3CCC(F)(F)CC3)c2-c2ccnc3[nH]ccc23)cc1 [Preparative Example 35, 4-(1-(4,4-difluorocyclohexyl)-4-(4-fluorophenyl)-1H-imidazol-5-yl)-1H-pyrrolo[2,3-b]pyridine]",viability at 100 µM,[1],60%
same,viability at 100 µM,[2],44%
"CCOC(=O)N1CCC(n2cnc(-c3ccc(F)cc3)c2-c2ccnc3[nH]ccc23)CC1 [Preparative Example 70, Ethyl 4-(4-(4-fluorophenyl)-5-(1H-pyrrolo[2,3-b]pyridin-4-yl)-1H-imidazol-1-yl)piperidine-1-carboxylate]",viability at 100 µM,[1],72%
same,viability at 100 µM,[2],11%
"CN(C)CCCS(=O)(=O)N[C@H]1CC[C@@H](n2cnc(-c3ccc(F)cc3)c2-c2ccnc3[nH]ccc23)CC1 [Preparative Example 100, 3-(dimethylamino)-N-((1R,4s)-4-(4-(4-fluorophenyl)-5-(1H-pyrrolo[2,3-b]pyridin-4-yl)-1H-imidazol-1-yl)cyclohexyl)propane-1-sulfonamide]",viability at 100 µM,[1],1%
same,viability at 100 µM,[2],0%
"CN(C)[C@H]1CC[C@H](n2cnc(-c3ccc(F)c(Cl)c3)c2-c2ccnc3[nH]ccc23)CC1 [Preparative Example 142, (1R,4r)-4-(4-(3-chloro-4-fluorophenyl)-5-(1H-pyrrolo[2,3-b]pyridin-4-yl)-1H-imidazol-1-yl)-N,N-dimethylcyclohexan-1-amine]",viability at 100 µM,[1],5%
same,viability at 100 µM,[2],0%
"Clc1cccc(-c2ncn(C3CCCCC3)c2-c2ccnc3[nH]ccc23)c1 [Preparative Example 5, 4-(4-(3-chlorophenyl)-1-cyclohexyl-1H-imidazol-5-yl)-1H-pyrrolo[2,3-b]pyridine]",viability at 100 µM,[1],24%
same,viability at 100 µM,[2],54%
"CNC(=O)N1CCC(n2cnc(-c3ccc(F)cc3)c2-c2ccnc3[nH]ccc23)CC1 [Preparative Example 71, 4-(4-(4-fluorophenyl)-5-(1H-pyrrolo[2,3-b]pyridin-4-yl)-1H-imidazol-1-yl)-N-methylpiperidine-1-carboxamide]",viability at 100 µM,[1],87%
same,viability at 100 µM,[2],87%
"Clc1ccc(-c2ncn(C3CCCCC3)c2-c2ccnc3[nH]ccc23)cc1 [Preparative Example 9, 4-(4-(4-chlorophenyl)-1-cyclohexyl-1H-imidazol-5-yl)-1H-pyrrolo[2,3-b]pyridine]",viability at 100 µM,[1],50%
same,viability at 100 µM,[2],30%
CN(C)[C@H]1CC[C@@H](n2cnc(-c3ccc(F)cc3)c2-c2ccnc3[nH]ccc23)CC1 [Preparative Example 90],viability at 100 µM,[1],23%
same,viability at 100 µM,[2],52%
"CC(C)(C)OC(=O)N1CCC(n2cnc(-c3ccc(F)cc3)c2-c2ccnc3[nH]ccc23)CC1 [Preparative Example 11, tert-butyl-4-(4-(4-fluorophenyl)-5-(1H-pyrrolo[2,3-b]pyridin-4-yl)-1H-imidazol-1-yl)piperidine-1-carboxylate]",viability at 100 µM,[1],30%
same,viability at 100 µM,[2],6%
